Values quoted from earlier work, collected in patent US7423028B2, “Injectable pharmaceutical compositions comprising sodium diclofenac and β-cyclodextrin” (Ibsa Institut Biochemique S.A., priority 2004, dated 2008).

O=C([O-])Cc1ccccc1Nc1c(Cl)cccc1Cl.[Na+] [sodium diclofenac, 2-[(2,6-dichlorophenyl)amino]benzeneacetic acid monosodium salt]
solubility in water: sparingly soluble in water
